Assay results as given in ChEMBL document CHEMBL1126772, “Activated ketone based inhibitors of human renin” (J Med Chem, 1993).
Square brackets hold non-standard residues; d marks the D form. Peptide text beside a SMILES is read from it. * marks the point of attachment. ξ: configuration not given here. ξCha = NC(CC1CCCCC1)C(=O)O; Boc = CC(C)(C)OC(=O)*; CF3 = FC(F)(F)*

Molecular target: T1, Cathepsin D (Bos taurus, UniProt P80209)
T1 sequence (P80209 whole entry): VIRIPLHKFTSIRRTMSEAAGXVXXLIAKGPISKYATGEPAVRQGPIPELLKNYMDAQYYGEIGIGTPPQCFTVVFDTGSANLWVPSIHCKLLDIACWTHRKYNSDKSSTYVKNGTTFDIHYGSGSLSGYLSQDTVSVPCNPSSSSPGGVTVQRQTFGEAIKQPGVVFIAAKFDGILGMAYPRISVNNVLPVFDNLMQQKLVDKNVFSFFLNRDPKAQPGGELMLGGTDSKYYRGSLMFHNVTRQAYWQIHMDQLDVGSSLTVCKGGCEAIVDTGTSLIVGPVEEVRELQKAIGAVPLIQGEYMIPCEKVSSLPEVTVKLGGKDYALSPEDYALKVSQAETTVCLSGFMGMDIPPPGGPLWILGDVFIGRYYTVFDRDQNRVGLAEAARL
Assay: In vitro inhibitory activity against bovine cathepsin D
Details: read-out: I50

Row | IC50 [nM] | SMILES
1 | 1300 | CCOC(=O)C(=O)C(CC1CCCCC1)NC(=O)[C@H](CC(C)C)NC(=O)[C@H](Cc1ccccc1)NC(=O)OC(C)(C)C (stereo partly drawn)

Molecular target: Pepsin A (Sus scrofa, UniProt P00791)
Sequence (P00791 whole entry): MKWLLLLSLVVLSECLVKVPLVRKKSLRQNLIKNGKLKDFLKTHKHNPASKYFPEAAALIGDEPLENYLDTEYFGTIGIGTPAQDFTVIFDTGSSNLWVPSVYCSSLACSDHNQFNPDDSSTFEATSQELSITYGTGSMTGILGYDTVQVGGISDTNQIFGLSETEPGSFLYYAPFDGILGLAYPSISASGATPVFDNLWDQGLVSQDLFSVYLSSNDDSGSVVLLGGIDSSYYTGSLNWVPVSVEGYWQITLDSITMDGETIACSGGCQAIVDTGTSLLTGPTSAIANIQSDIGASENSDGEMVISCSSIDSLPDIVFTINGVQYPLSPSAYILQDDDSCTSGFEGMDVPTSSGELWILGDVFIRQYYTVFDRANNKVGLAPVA
Assay: In vitro inhibitory activity against aspartic proteinases pepsin from porcine
Details: read-out: I50

Row | IC50 [nM] | SMILES
2 | 2700 | CCOC(=O)C(=O)C(CC1CCCCC1)NC(=O)[C@H](CC(C)C)NC(=O)[C@H](Cc1ccccc1)NC(=O)OC(C)(C)C (stereo partly drawn)

Molecular target: T2, Renin (Homo sapiens, UniProt P00797)
T2 sequence (P00797 whole entry): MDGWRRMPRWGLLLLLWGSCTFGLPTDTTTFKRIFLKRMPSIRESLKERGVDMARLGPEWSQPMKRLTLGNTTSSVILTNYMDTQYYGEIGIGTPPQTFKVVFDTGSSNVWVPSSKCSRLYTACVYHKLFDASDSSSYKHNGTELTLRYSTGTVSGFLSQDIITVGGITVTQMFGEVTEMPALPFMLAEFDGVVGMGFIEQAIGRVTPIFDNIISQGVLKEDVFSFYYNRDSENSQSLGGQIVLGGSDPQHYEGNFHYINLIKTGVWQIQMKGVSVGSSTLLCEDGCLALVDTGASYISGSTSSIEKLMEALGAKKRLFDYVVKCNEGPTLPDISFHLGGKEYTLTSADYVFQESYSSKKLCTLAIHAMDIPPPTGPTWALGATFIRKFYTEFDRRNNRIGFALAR
Assay: In vitro inhibitory potency against human kidney renin.
Type: tissue-based
Details: read-out: I50

Row | SMILES | IC50 [nM]
3 | CCOC(=O)C(=O)C(CC1CCCCC1)NC(=O)[C@H](CC(C)C)NC(=O)OCc1ccccc1 (stereo partly drawn) | 52000
4 | CCCC(=O)[C@H](O)[C@H](CC1CCCCC1)NC(=O)[C@H](CC(C)C)NC(=O)[C@H](Cc1ccccc1)NC(=O)C1CCCC1 | 14
5 | CCCC(=O)C(=O)[C@H](CC1CCCCC1)NC(=O)[C@H](CC(C)C)NC(=O)[C@H](Cc1ccccc1)NC(=O)C1CCCC1 | 28
6 | CCOC(=O)[C@H](O)[C@H](CC1CCCCC1)NC(=O)[C@H](CC(C)C)NC(=O)[C@@H](CC(=O)N1CCOCC1)Cc1ccccc1 | 4.7
7 | CCCC1([C@H](O)[C@H](CC2CCCCC2)NC(=O)[C@H](CC(C)C)NC(=O)[C@H](Cc2ccccc2)NC(=O)OC(C)(C)C)SCCCS1 | 2200
8 | CCCC(=O)[C@H](O)[C@H](CC1CCCCC1)NC(=O)[C@H](CC(C)C)NC(=O)[C@H](Cc1ccccc1)NC(=O)OC(C)(C)C | 23
9 | CCCC(=O)[C@H](O)[C@H](CC1CCCCC1)NC(=O)[C@H](Cc1c[nH]cn1)NC(=O)OC(C)(C)C | 420000
10 | CCOC(=O)C(=O)[C@H](CC1CCCCC1)NC(=O)[C@H](CC(C)C)NC(=O)[C@@H](CC(=O)N1CCOCC1)Cc1ccccc1 | 4.1
11 | CC(C)C[C@H](NC(=O)[C@H](Cc1ccccc1)NC(=O)OC(C)(C)C)C(=O)N[C@@H](CC1CCCCC1)C(C)O (stereo partly drawn) | 3200
12 | CC(C)C[C@H](NC(=O)[C@H](Cc1ccccc1)NC(=O)OC(C)(C)C)C(=O)NC(CC1CCCCC1)C(O)C(F)(F)F (stereo partly drawn) | 4000

Results, then the compound that gave them:

Row | IC50 [nM] | SMILES
13 | 5.3 | CCOC(=O)[C@H](O)[C@H](CC1CCCCC1)NC(=O)[C@H](CC(C)C)NC(=O)[C@H](Cc1ccccc1)NC(=O)OC(C)(C)C
14 | 52 | CCCC(=O)C(=O)[C@H](CC1CCCCC1)NC(=O)[C@H](CC(C)C)NC(=O)[C@H](Cc1ccccc1)NC(=O)OC(C)(C)C
15 | 15 | CCOC(=O)C(=O)C(CC1CCCCC1)NC(=O)[C@H](CC(C)C)NC(=O)[C@H](Cc1ccccc1)NC(=O)OC(C)(C)C (stereo partly drawn)
16 | 64000 | CC(C)C[C@H](NC(=O)[C@H](Cc1ccccc1)NC(=O)OC(C)(C)C)C(=O)NC(CC1CCCCC1)C(=O)C(=O)O (stereo partly drawn)
17 | 110 | CCOC(=O)[C@@H](O)[C@H](CC1CCCCC1)NC(=O)[C@H](CC(C)C)NC(=O)[C@H](Cc1ccccc1)NC(=O)OC(C)(C)C
18 | 250 | CC(C)C[C@H](NC(=O)[C@H](Cc1ccccc1)NC(=O)OC(C)(C)C)C(=O)NC(CC1CCCCC1)C(=O)C(F)(F)F (stereo partly drawn) (Boc-Phe-Leu-[ξCha]-CF3)
